Experimental data: EP0470323A2, “New salts of the nicotinic acid with aminobenzylic compounds and their pharmaceutical use” (BROMLEY LIMITED, priority 1990, dated 1992)

Tests used:
[1] = system: Hypercholesterolaemia caused by Trit WR1339 in the mouses; assay: Hypercholesterolaemia of the mouse caused by Triton WR 1339; format: in vivo; details: for Tot.Cholesterol M ± E.S. / Tot.Lipids M ± E.S.: 20 hours after Triton WR 1339 i.p.; for Tot.Cholesterol % vs contr. / Tot.Lipids % vs contr.: reduction
Description: The method described by Garattini S. (Arzneim,Forsch 9, 206; 1959) with some modifications has been followed.
The mouses used have been males of 22 to 28 grams body weight, on an empty stomach but with water "ad libitum" since 12 hours. The hyperlipidaemia was induced by means of an intraperitoneum administration of […] of Triton WR 1339, with dosage 300 mg/kg in a physiological solution. The subject products were administered at the same time in clear plain water, always in a volume of […] by means of a gastric probe. The animals were sacrified after 20 hours, by cutting them the carotids. The blood was collected in some plastic test-tubes, and was centrifuged at 3500 rpm for ten minutes. Thereafter the total cholesterol (Sornay R and colleagues, Arzeneim Forsch, 26,885 1976) and the total lipids (Chonhelmer R and colleagues, Biological Chemistry 106, 745, 1934) were determined.

[2] = system: Hypertriglyceridaemia caused by ethanole in the rats; assay: Hypertriglyceridaemia caused by ethanol in rats, activity at three dose levels; format: in vivo; details: rat; for Triglycerids M ± E.S.: 4 hours after last treatment; for Triglycerids % vs contr. positivi: 4 hours after treatment
Excerpt: (§1) For this test group the methods described by Sistori C.R. and colleagues (Atherosclerosis 30, 45; 1978) is followed.
(§2) The hypertriglyceridaemia has been induced into the male rats having a body weight of 160 - 170 g by giving them to drink, for 4 consecutive days, a solution of 10% ethanole in water.

[3] = system: Thyphirium salmonella strains (TA 98, TA 100, TA 1535, and TA 1538); format: cell-based
Excerpt: The compound according to the Example 1 has been tested, in order to check and see its mutagenic effects.

red cells in the rat = assay: Red cell deformability / filtration, Schmidt-Schönbein method; format: in vivo; details: dose 3 x 0,5 mM/kg/os, listed as Compound as Ex. 1
Excerpt: steresis (Teiltel P.: Nouv. Rev. Franç. Hématol. 7, 195, 1967). Any alteration, almost undoubtely at the level of the red cell's membrane, cause some damaging variations of the red cell's elasticity thus making more difficult the passing through the capillary vessels having more reduced diameter, and therefore increasing the flow resistance in the peripheral vessels systems. In order to determine the effect caused by the compound according to the Example 1, on these features of the red cell, the method described by Schmidt, Schonbein and colleagues (Blut 26, 369, 1973) has been used.
In the circulatory flow, the above mentioned capillary vessels being excluded, the blood cells do normally circulate being attached between each other because of their adhesiveness. In order to study this adhesion force, the above mentioned Teitel method has been used. Male rats of 150 g body weight approximately have been employed, and they have been treated for three consecutive days with 0,5 mM/kg/os of the compound according to the Example 1, or otherwise Buflomedil, or even Pentosiphillin used as comparison substance. After the last treatment the animals, without eating from 18 hours, have been killed in a light ethereal anaesthesy and the blood was collected over an 0,2 molar EDTA (9 and 1 volumes respectively). The red cells filtering possibility, measured with the Teitel method, wherein the quantity of red cells passing, in high haematocritical conditions, through a paper filter with holes of 20-40 µm in a previously determined time, has been ascertained as follows: the blood was centrifuged for ten minutes at 2000 rpm in order to obtain the massing of the red cells, two ml of the blood collected as above were put into an upside down turned cone made with filtering paper, being previously wetted with a physiological solution. The volume passing through the filter in 2 - 4 - 8 and 16 minutes is then measured. […]

[4] = system: Hypertriglyceridaemia caused by ethanole in the rats; assay: Hypertriglyceridaemia caused by ethanol in rats, duration of the effects; format: in vivo; details: rat, dose 1 mM/kg/os
Excerpt: as §1, §2
In order to perform the particular kinetics of the compound in accordance with the example 1 following the instant invention, it was considered appropriate, anyway, to evaluate the duration of the hypolipaemizing effect in comparison to that of the nicotinic acid.
A group of normal animals was treated with the vehicle only and did serve as a negative control group.

COc1cc(OC)c(C(=O)CCCN2CCCC2)c(OC)c1 [Example 1, 4-(1 pyrrholydinyl)-1-(2,4,6 trimethoxypheniyl)-1-nicotinized butanone]
reduction in both parameters (total cholesterol and total lipids) ([1]; dosage of 2 mM/kg weight): 43% | reduction in both parameters (total cholesterol and total lipids) ([1]; dosage of 5 mM/kg weight): ~60% | Tot.Cholesterol M ± E.S. ([1]; dose 1 mM/kg per os): 221 ± 18 mg/100 ml | Tot.Lipids M ± E.S. ([1]; dose 1 mM/kg per os): 1721 ± 164 mg/100 ml | Tot.Cholesterol % vs contr. ([1]; dose 1 mM/kg per os): 38,3% | Tot.Lipids % vs contr. ([1]; dose 1 mM/kg per os): 29,3% | Tot.Cholesterol M ± E.S. ([1]; dose 2 mM/kg per os): 191 ± 15 mg/100 ml | Tot.Lipids M ± E.S. ([1]; dose 2 mM/kg per os): 1315 ± 115 mg/100 ml | Tot.Cholesterol % vs contr. ([1]; dose 2 mM/kg per os): 46,6% | Tot.Lipids % vs contr. ([1]; dose 2 mM/kg per os): 46,0% | Tot.Cholesterol M ± E.S. ([1]; dose 4 mM/kg per os): 133 ± 12 mg/100 ml | Tot.Lipids M ± E.S. ([1]; dose 4 mM/kg per os): 1008 ± 117 mg/100 ml | Tot.Cholesterol % vs contr. ([1]; dose 4 mM/kg per os): 62,8% | Tot.Lipids % vs contr. ([1]; dose 4 mM/kg per os): 58,6% | Triglycerids M ± E.S. ([2]; dose 0,5 mM/kg/os once a day for 4 days): 148,2 ± 16,4 mg/100 ml | Triglycerids % vs contr. positivi ([2]; dose 0,5 mM/kg/os): -26,8% | Triglycerids M ± E.S. ([2]; dose 1,0 mM/kg/os once a day for 4 days): 135,0 ± 12,6 mg/100 ml | Triglycerids % vs contr. positivi ([2]; dose 1,0 mM/kg/os): -33,6% | Triglycerids M ± E.S. ([2]; dose 2,0 mM/kg/os once a day for 4 days): 112,6 ± 14,3 mg/100 ml | Triglycerids % vs contr. positivi ([2]; dose 2,0 mM/kg/os): -44,4% | decrease (of triglycerides vs positive controls) ([2]; dose of 0,4 mM/kg): 26,8% | decrease (of triglycerides vs positive controls) ([2]; dose of 1 mM/kg per os): 33,3% | decrease (of triglycerides vs positive controls) ([2]; dose of 2 mM/kg): 44,4% | mutagenic activity [3]: did not show any mutagenic activity | Schmidt-Schönbein method Δ % vs contr. (red cells in the rat): 46,2% | % variation vs positive controls (Trigliceridi) ([4]; 4 h): -38,2% | Trigliceridi ([4]; 4 h from the last treatment): 158,9 ± 11,6 mg/100 ml | % variation vs positive controls (Trigliceridi) ([4]; 6 h): -42,6% | Trigliceridi ([4]; 6 h from the last treatment): 135,6 ± 10,9 mg/100 ml | % variation vs positive controls (Trigliceridi) ([4]; 12 h): -31,5% | Trigliceridi ([4]; 12 h from the last treatment): 141,0 ± 21,1 mg/100 ml | % variation vs positive controls (Trigliceridi) ([4]; 16 h): -22,1% | Trigliceridi ([4]; 16 h from the last treatment): 145,3 ± 12,7 mg/100 ml | % variation vs positive controls (Trigliceridi) ([4]; 24 h): -9,2% | Trigliceridi ([4]; 24 h from the last treatment): 150,1 ± 8,4 mg/100 ml
